Assay results: US6426369B1, “Oxethazaine as antimicrobial agent” (Eisai Co., Ltd., priority 1997, dated 2002)

System: H. pylori
Experiment: Antimicrobial activity test 6: oxethazaine in combination with an antibiotic (AMPC, CAM, RXM), checker board method
Assay type: cell-based, Helicobacter pylori
Set-up: key to growth of H. pylori: “−” indicates the inhibited growth of H. pylori (presence of antimicrobial activity); “+” indicates the growth of H. pylori (absence of antimicrobial activity)
Excerpt: The effect of combined use with amoxicillin (AMPC), clarithromycin (CAM) or roxithromycin (RXM) was examined in the same manner as in antimicrobial activity test 1, using the checker board method.

[1] = combined use with oxethazaine, out of 15 strains (AMPC), 21 strains (CAM), 22 strains (RXM)

## CC[C@H]1OC(=O)[C@H](C)[C@@H](O[C@H]2C[C@@](C)(OC)[C@@H](O)[C@H](C)O2)[C@H](C)[C@@H](O[C@@H]2O[C@H](C)C[C@H](N(C)C)[C@H]2O)[C@](C)(OC)C[C@@H](C)C(=O)[C@H](C)[C@@H](O)[C@]1(C)O [clarithromycin]
89-355, oxethazaine 0 + CAM 0.006 μg/ml
  growth of H. pylori: +
89-355, oxethazaine 0 + CAM 0.012 μg/ml
  growth of H. pylori: +
89-355, oxethazaine 0 + CAM 0.024 μg/ml
  growth of H. pylori: +
89-355, oxethazaine 0 + CAM 0.05 μg/ml
  growth of H. pylori: +
89-355, oxethazaine 0 + CAM 0.1 μg/ml
  growth of H. pylori: −
89-355, oxethazaine 0 + CAM 0.2 μg/ml
  growth of H. pylori: −
89-355, oxethazaine 0 + CAM 0.4 μg/ml
  growth of H. pylori: −
89-355, oxethazaine 0 + CAM 0.8 μg/ml
  growth of H. pylori: −
89-355, oxethazaine 0 + CAM 1.56 μg/ml
  growth of H. pylori: −
89-355, oxethazaine 0 + CAM 3.13 μg/ml
  growth of H. pylori: −
89-355, oxethazaine 0 + CAM 6.25 μg/ml
  growth of H. pylori: −
89-355, oxethazaine 0 + CAM 12.5 μg/ml
  growth of H. pylori: −
89-355, oxethazaine 0 + CAM 25 μg/ml
  growth of H. pylori: −
89-355, oxethazaine 0 + CAM 50 μg/ml
  growth of H. pylori: −
89-355, oxethazaine 0 + CAM 100 μg/ml
  growth of H. pylori: −
89-357, oxethazaine 0 + CAM 0.006 μg/ml
  growth of H. pylori: +
89-357, oxethazaine 0 + CAM 0.012 μg/ml
  growth of H. pylori: +
89-357, oxethazaine 0 + CAM 0.024 μg/ml
  growth of H. pylori: +
89-357, oxethazaine 0 + CAM 0.05 μg/ml
  growth of H. pylori: −
89-357, oxethazaine 0 + CAM 0.1 μg/ml
  growth of H. pylori: −
89-357, oxethazaine 0 + CAM 0.2 μg/ml
  growth of H. pylori: −
89-357, oxethazaine 0 + CAM 0.4 μg/ml
  growth of H. pylori: −
89-357, oxethazaine 0 + CAM 0.8 μg/ml
  growth of H. pylori: −
89-357, oxethazaine 0 + CAM 1.56 μg/ml
  growth of H. pylori: −
89-357, oxethazaine 0 + CAM 3.13 μg/ml
  growth of H. pylori: −
89-357, oxethazaine 0 + CAM 6.25 μg/ml
  growth of H. pylori: −
89-357, oxethazaine 0 + CAM 12.5 μg/ml
  growth of H. pylori: −
89-357, oxethazaine 0 + CAM 25 μg/ml
  growth of H. pylori: −
89-357, oxethazaine 0 + CAM 50 μg/ml
  growth of H. pylori: −
89-357, oxethazaine 0 + CAM 100 μg/ml
  growth of H. pylori: −
90-388, oxethazaine 0 + CAM 0.006 μg/ml
  growth of H. pylori: +
90-388, oxethazaine 0 + CAM 0.012 μg/ml
  growth of H. pylori: +
90-388, oxethazaine 0 + CAM 0.024 μg/ml
  growth of H. pylori: +
90-388, oxethazaine 0 + CAM 0.05 μg/ml
  growth of H. pylori: +
90-388, oxethazaine 0 + CAM 0.1 μg/ml
  growth of H. pylori: −
90-388, oxethazaine 0 + CAM 0.2 μg/ml
  growth of H. pylori: −
90-388, oxethazaine 0 + CAM 0.4 μg/ml
  growth of H. pylori: −
90-388, oxethazaine 0 + CAM 0.8 μg/ml
  growth of H. pylori: −
90-388, oxethazaine 0 + CAM 1.56 μg/ml
  growth of H. pylori: −
90-388, oxethazaine 0 + CAM 3.13 μg/ml
  growth of H. pylori: −
90-388, oxethazaine 0 + CAM 6.25 μg/ml
  growth of H. pylori: −
90-388, oxethazaine 0 + CAM 12.5 μg/ml
  growth of H. pylori: −
90-388, oxethazaine 0 + CAM 25 μg/ml
  growth of H. pylori: −
90-388, oxethazaine 0 + CAM 50 μg/ml
  growth of H. pylori: −
90-388, oxethazaine 0 + CAM 100 μg/ml
  growth of H. pylori: −
90-390, oxethazaine 0 + CAM 0.006 μg/ml
  growth of H. pylori: +
90-390, oxethazaine 0 + CAM 0.012 μg/ml
  growth of H. pylori: +
90-390, oxethazaine 0 + CAM 0.024 μg/ml
  growth of H. pylori: +
90-390, oxethazaine 0 + CAM 0.05 μg/ml
  growth of H. pylori: +
90-390, oxethazaine 0 + CAM 0.1 μg/ml
  growth of H. pylori: −
90-390, oxethazaine 0 + CAM 0.2 μg/ml
  growth of H. pylori: −
90-390, oxethazaine 0 + CAM 0.4 μg/ml
  growth of H. pylori: −
90-390, oxethazaine 0 + CAM 0.8 μg/ml
  growth of H. pylori: −
90-390, oxethazaine 0 + CAM 1.56 μg/ml
  growth of H. pylori: −
90-390, oxethazaine 0 + CAM 3.13 μg/ml
  growth of H. pylori: −
90-390, oxethazaine 0 + CAM 6.25 μg/ml
  growth of H. pylori: −
90-390, oxethazaine 0 + CAM 12.5 μg/ml
  growth of H. pylori: −
90-390, oxethazaine 0 + CAM 25 μg/ml
  growth of H. pylori: −
90-390, oxethazaine 0 + CAM 50 μg/ml
  growth of H. pylori: −
90-390, oxethazaine 0 + CAM 100 μg/ml
  growth of H. pylori: −
EH 12, oxethazaine 0 + CAM 0.006 μg/ml
  growth of H. pylori: +
EH 12, oxethazaine 0 + CAM 0.012 μg/ml
  growth of H. pylori: +
EH 12, oxethazaine 0 + CAM 0.024 μg/ml
  growth of H. pylori: +
EH 12, oxethazaine 0 + CAM 0.05 μg/ml
  growth of H. pylori: −
EH 12, oxethazaine 0 + CAM 0.1 μg/ml
  growth of H. pylori: −
EH 12, oxethazaine 0 + CAM 0.2 μg/ml
  growth of H. pylori: −
EH 12, oxethazaine 0 + CAM 0.4 μg/ml
  growth of H. pylori: −
EH 12, oxethazaine 0 + CAM 0.8 μg/ml
  growth of H. pylori: −
EH 12, oxethazaine 0 + CAM 1.56 μg/ml
  growth of H. pylori: −
EH 12, oxethazaine 0 + CAM 3.13 μg/ml
  growth of H. pylori: −
EH 12, oxethazaine 0 + CAM 6.25 μg/ml
  growth of H. pylori: −
EH 12, oxethazaine 0 + CAM 12.5 μg/ml
  growth of H. pylori: −
EH 12, oxethazaine 0 + CAM 25 μg/ml
  growth of H. pylori: −
EH 12, oxethazaine 0 + CAM 50 μg/ml
  growth of H. pylori: −
EH 12, oxethazaine 0 + CAM 100 μg/ml
  growth of H. pylori: −
EH 13, oxethazaine 0 + CAM 0.006 μg/ml
  growth of H. pylori: +
EH 13, oxethazaine 0 + CAM 0.012 μg/ml
  growth of H. pylori: +
EH 13, oxethazaine 0 + CAM 0.024 μg/ml
  growth of H. pylori: −
EH 13, oxethazaine 0 + CAM 0.05 μg/ml
  growth of H. pylori: −
EH 13, oxethazaine 0 + CAM 0.1 μg/ml
  growth of H. pylori: −
EH 13, oxethazaine 0 + CAM 0.2 μg/ml
  growth of H. pylori: −
EH 13, oxethazaine 0 + CAM 0.4 μg/ml
  growth of H. pylori: −
EH 13, oxethazaine 0 + CAM 0.8 μg/ml
  growth of H. pylori: −
EH 13, oxethazaine 0 + CAM 1.56 μg/ml
  growth of H. pylori: −
EH 13, oxethazaine 0 + CAM 3.13 μg/ml
  growth of H. pylori: −
EH 13, oxethazaine 0 + CAM 6.25 μg/ml
  growth of H. pylori: −
EH 13, oxethazaine 0 + CAM 12.5 μg/ml
  growth of H. pylori: −
EH 13, oxethazaine 0 + CAM 25 μg/ml
  growth of H. pylori: −
EH 13, oxethazaine 0 + CAM 50 μg/ml
  growth of H. pylori: −
EH 13, oxethazaine 0 + CAM 100 μg/ml
  growth of H. pylori: −
[1]
  additive effect, number of strains: 17 strains/
  synergism, number of strains: 5 strains/
Strain 90-397, CAM 0.006 μg/ml, oxethazaine μg/ml: 100, 50, 25, 12.5, 6.25, 3.13, 0
  growth of H. pylori: +
Strain 90-397, CAM 0.012 μg/ml, oxethazaine μg/ml: 100, 50, 25, 12.5, 6.25, 3.13, 0
  growth of H. pylori: +
Strain 90-397, CAM 0.024 μg/ml, oxethazaine μg/ml: 100, 50, 25, 12.5, 6.25, 3.13, 0
  growth of H. pylori: +
Strain 90-397, CAM 0.05 μg/ml, oxethazaine μg/ml: 100, 50, 25, 12.5, 6.25, 3.13, 0
  growth of H. pylori: +
Strain 90-397, CAM 0.1 μg/ml, oxethazaine μg/ml: 100, 50, 25, 12.5, 6.25, 3.13, 0
  growth of H. pylori: +
Strain 90-397, CAM 0.2 μg/ml, oxethazaine μg/ml: 100, 50, 25, 12.5, 6.25, 3.13, 0
  growth of H. pylori: +
Strain 90-397, CAM 12.5 μg/ml, oxethazaine μg/ml: 100, 50, 25, 12.5, 6.25, 3.13, 0
  growth of H. pylori: −
Strain 90-397, CAM 25 μg/ml, oxethazaine μg/ml: 100, 50, 25, 12.5, 6.25, 3.13, 0
  growth of H. pylori: −
Strain 90-397, CAM 50 μg/ml, oxethazaine μg/ml: 100, 50, 25, 12.5, 6.25, 3.13, 0
  growth of H. pylori: −
Strain 90-397, CAM 100 μg/ml, oxethazaine μg/ml: 100, 50, 25, 12.5, 6.25, 3.13, 0
  growth of H. pylori: −
